{"source": "ChEMBL document CHEMBL5696441", "about": "(Nat Chem Biol, 2011)", "key": {"[1]": {"target": "Ribosomal protein S6 kinase alpha-4 (Homo sapiens) (UniProt O75676)", "sequence (O75676 whole entry, looked up, the tested form may be a part)": "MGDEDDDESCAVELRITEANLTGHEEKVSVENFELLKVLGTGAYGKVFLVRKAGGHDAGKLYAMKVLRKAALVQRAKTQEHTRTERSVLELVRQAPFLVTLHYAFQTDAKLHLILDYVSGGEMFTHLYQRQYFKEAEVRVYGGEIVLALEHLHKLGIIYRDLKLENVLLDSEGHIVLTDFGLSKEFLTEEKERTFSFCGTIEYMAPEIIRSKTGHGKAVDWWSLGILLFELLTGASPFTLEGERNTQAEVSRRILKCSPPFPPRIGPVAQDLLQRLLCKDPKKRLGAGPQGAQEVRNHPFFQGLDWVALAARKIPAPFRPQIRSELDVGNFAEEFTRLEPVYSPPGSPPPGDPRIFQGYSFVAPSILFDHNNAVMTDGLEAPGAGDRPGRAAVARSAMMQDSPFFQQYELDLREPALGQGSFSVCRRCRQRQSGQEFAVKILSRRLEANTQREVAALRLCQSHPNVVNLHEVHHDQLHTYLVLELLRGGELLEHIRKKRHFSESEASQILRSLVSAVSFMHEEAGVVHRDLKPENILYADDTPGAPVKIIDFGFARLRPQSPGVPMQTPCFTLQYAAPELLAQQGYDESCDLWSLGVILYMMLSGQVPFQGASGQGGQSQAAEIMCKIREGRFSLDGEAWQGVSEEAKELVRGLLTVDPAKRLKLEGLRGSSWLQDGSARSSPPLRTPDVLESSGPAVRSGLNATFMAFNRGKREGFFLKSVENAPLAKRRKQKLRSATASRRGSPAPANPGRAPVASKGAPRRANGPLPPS", "experiment": "Inhibition of C-terminal kinase domain RPS6KA4 (unknown origin) assessed as remaining activity at 1 uM by Kinome scan method relative to control"}, "[2]": {"target": "Tyrosine-protein kinase receptor Tie-1 (Homo sapiens) (UniProt P35590)", "sequence (P35590 whole entry)": "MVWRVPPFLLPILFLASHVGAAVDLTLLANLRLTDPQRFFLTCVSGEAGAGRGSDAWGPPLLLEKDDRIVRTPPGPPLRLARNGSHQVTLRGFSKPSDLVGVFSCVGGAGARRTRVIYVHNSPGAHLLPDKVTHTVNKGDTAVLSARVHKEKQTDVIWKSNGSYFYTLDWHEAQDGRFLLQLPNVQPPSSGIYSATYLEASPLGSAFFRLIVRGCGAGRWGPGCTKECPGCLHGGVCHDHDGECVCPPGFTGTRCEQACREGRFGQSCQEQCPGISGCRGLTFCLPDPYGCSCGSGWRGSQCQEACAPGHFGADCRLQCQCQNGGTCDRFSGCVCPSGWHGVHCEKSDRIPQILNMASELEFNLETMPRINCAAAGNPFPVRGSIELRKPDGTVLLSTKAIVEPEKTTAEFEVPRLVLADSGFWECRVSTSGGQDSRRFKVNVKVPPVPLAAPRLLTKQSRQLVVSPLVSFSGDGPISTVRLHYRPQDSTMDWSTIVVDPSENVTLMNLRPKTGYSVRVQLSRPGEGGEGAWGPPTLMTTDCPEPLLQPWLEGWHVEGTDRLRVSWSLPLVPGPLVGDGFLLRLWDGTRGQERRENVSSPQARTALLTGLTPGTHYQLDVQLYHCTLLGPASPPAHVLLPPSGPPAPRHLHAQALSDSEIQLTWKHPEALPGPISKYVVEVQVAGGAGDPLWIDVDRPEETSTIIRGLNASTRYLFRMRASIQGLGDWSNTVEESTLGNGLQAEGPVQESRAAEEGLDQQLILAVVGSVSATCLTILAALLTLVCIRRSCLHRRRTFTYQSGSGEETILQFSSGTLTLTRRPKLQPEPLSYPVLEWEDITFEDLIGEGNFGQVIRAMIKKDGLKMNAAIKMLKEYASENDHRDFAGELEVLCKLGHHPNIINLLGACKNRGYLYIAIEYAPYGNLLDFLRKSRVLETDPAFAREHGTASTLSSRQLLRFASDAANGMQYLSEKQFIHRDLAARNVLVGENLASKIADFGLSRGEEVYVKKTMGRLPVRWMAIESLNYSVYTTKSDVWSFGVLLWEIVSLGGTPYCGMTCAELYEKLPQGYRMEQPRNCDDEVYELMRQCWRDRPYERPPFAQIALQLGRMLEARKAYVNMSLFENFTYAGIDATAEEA", "experiment": "Inhibition of TIE1 (unknown origin) assessed as remaining activity at 1 uM by Kinome scan method relative to control"}, "[3]": {"target": "Cyclin-dependent kinase 18 (Homo sapiens) (UniProt Q07002)", "sequence (Q07002 whole entry)": "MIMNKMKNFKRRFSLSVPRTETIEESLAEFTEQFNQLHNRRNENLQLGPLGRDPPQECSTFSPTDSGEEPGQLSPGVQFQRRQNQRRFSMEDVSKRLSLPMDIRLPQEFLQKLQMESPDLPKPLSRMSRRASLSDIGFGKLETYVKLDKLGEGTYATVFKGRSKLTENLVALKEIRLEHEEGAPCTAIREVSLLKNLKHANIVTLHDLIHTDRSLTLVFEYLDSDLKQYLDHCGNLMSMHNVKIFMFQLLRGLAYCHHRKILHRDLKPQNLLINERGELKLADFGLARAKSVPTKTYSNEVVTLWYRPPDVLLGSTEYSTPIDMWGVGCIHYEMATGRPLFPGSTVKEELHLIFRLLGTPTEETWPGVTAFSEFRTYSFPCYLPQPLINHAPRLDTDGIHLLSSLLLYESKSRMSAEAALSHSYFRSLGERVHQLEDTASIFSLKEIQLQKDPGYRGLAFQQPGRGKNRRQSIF", "experiment": "Inhibition of PCTK3 (unknown origin) assessed as remaining activity at 1 uM by Kinome scan method relative to control"}, "[4]": {"target": "Serine/threonine-protein kinase 25 (Homo sapiens) (UniProt O00506)", "sequence (O00506 whole entry, looked up)": "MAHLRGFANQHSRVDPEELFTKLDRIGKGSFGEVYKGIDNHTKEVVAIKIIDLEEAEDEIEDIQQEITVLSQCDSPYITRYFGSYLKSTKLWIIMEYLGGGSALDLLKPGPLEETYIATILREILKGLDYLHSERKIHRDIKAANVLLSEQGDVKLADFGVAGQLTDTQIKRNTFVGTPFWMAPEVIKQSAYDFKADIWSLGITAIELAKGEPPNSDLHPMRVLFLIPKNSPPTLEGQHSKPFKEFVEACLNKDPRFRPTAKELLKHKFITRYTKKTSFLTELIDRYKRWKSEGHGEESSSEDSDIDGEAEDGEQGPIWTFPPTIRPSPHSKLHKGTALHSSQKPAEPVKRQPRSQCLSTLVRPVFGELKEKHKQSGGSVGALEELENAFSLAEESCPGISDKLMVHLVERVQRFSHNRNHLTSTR", "experiment": "Inhibition of YSK1 (unknown origin) assessed as remaining activity at 1 uM by Kinome scan method relative to control"}, "[5]": {"target": "Death-associated protein kinase 2 (Homo sapiens) (UniProt Q9UIK4)", "sequence (Q9UIK4 whole entry, looked up)": "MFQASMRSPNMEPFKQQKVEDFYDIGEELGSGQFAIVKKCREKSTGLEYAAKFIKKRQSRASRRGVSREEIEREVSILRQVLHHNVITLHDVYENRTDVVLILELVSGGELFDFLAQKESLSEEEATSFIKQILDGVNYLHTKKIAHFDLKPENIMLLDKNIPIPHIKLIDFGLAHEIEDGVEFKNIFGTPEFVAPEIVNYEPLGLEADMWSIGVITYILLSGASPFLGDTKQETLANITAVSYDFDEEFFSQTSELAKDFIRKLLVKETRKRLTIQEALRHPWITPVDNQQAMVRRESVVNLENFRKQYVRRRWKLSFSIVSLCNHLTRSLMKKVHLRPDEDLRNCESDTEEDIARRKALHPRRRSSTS", "experiment": "Inhibition of DAPK2 (unknown origin) assessed as remaining activity at 1 uM by Kinome scan method relative to control"}, "[6]": {"target": "Protein kinase C eta type (Homo sapiens) (UniProt P24723)", "experiment": "Inhibition of PRKCH (unknown origin) assessed as remaining activity at 1 uM by Kinome scan method relative to control"}, "[7]": {"test_system": "Mast/stem cell growth factor receptor Kit (Homo sapiens), P10721 [D816V]", "sequence (P10721 whole entry D816V)": "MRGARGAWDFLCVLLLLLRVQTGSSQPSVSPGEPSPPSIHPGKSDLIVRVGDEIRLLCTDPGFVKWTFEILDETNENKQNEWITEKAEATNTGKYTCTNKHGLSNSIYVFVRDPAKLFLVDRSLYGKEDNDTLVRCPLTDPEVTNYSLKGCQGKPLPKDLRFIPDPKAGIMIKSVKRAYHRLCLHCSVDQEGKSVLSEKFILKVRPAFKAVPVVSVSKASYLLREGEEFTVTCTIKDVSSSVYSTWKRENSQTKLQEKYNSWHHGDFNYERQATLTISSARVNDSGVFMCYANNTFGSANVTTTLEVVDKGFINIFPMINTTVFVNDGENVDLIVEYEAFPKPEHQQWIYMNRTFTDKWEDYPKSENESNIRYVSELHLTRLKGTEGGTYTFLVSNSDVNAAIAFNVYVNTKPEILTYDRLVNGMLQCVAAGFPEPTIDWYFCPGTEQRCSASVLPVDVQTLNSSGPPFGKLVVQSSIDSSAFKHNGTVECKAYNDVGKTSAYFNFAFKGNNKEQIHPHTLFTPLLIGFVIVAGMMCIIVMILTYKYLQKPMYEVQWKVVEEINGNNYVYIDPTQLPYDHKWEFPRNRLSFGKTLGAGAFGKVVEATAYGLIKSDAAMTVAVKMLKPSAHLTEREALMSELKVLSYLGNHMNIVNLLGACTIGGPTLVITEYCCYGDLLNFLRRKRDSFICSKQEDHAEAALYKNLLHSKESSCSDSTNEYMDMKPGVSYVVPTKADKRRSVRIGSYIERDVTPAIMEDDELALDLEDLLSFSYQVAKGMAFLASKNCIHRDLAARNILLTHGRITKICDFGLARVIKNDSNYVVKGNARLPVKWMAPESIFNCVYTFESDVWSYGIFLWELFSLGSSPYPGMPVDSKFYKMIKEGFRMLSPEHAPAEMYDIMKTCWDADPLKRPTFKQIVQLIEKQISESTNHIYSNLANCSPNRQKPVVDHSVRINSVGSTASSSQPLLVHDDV", "experiment": "Inhibition of KIT D816V mutant (unknown origin) assessed as remaining activity at 1 uM by Kinome scan method relative to control"}, "[8]": {"target": "T1, Muscle, skeletal receptor tyrosine-protein kinase (Homo sapiens) (UniProt O15146)", "T1 sequence (whole entry)": "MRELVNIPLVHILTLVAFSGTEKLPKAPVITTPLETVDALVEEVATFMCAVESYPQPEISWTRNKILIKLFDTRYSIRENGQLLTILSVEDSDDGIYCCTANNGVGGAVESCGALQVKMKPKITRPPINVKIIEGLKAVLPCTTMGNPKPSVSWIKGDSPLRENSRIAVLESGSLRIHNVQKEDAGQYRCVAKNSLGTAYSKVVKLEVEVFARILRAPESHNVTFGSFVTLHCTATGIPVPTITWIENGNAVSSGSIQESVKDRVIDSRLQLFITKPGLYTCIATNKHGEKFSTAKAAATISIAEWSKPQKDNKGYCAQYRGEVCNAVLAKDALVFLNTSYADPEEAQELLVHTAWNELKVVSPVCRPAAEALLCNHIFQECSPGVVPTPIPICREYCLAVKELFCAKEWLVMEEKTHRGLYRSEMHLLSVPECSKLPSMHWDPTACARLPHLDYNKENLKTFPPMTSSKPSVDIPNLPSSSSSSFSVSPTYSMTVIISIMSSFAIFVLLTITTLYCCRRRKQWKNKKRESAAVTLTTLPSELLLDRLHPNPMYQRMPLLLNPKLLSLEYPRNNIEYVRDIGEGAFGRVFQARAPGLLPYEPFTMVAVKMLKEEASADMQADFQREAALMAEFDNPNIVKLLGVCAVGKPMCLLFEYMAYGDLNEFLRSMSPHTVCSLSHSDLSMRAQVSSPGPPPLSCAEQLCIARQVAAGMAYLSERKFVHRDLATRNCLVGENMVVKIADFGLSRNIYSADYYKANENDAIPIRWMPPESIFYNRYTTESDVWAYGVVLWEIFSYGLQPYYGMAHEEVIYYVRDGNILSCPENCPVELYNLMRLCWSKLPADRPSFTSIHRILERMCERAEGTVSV", "experiment": "Inhibition of MUSK (unknown origin) assessed as remaining activity at 1 uM by Kinome scan method relative to control"}, "[9]": {"target": "Serine/threonine-protein kinase BRSK2 (Homo sapiens) (UniProt Q8IWQ3)", "sequence (Q8IWQ3 whole entry)": "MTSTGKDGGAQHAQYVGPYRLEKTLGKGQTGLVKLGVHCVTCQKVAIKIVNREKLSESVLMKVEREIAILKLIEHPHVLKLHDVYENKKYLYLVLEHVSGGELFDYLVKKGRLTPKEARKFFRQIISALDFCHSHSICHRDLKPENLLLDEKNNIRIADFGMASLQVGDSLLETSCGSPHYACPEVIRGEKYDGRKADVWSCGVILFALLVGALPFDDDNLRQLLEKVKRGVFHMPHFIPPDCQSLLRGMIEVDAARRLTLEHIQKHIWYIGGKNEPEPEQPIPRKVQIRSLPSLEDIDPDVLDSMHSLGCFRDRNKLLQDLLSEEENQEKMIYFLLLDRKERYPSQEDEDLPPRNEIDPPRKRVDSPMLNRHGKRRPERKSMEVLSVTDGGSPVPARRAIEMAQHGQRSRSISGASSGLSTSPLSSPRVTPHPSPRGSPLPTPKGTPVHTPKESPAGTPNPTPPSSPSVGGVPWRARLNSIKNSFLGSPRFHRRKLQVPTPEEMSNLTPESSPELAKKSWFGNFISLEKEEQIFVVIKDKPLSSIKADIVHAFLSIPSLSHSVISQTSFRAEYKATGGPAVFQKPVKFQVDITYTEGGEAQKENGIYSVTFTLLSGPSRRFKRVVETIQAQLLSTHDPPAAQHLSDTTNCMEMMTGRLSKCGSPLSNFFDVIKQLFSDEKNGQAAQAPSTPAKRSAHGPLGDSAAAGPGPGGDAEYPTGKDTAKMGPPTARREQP", "experiment": "Inhibition of BRSK2 (unknown origin) assessed as remaining activity at 1 uM by Kinome scan method relative to control"}, "[10]": {"target": "T2, Tyrosine-protein kinase JAK3 (Homo sapiens) (UniProt P52333)", "T2 sequence (whole entry)": "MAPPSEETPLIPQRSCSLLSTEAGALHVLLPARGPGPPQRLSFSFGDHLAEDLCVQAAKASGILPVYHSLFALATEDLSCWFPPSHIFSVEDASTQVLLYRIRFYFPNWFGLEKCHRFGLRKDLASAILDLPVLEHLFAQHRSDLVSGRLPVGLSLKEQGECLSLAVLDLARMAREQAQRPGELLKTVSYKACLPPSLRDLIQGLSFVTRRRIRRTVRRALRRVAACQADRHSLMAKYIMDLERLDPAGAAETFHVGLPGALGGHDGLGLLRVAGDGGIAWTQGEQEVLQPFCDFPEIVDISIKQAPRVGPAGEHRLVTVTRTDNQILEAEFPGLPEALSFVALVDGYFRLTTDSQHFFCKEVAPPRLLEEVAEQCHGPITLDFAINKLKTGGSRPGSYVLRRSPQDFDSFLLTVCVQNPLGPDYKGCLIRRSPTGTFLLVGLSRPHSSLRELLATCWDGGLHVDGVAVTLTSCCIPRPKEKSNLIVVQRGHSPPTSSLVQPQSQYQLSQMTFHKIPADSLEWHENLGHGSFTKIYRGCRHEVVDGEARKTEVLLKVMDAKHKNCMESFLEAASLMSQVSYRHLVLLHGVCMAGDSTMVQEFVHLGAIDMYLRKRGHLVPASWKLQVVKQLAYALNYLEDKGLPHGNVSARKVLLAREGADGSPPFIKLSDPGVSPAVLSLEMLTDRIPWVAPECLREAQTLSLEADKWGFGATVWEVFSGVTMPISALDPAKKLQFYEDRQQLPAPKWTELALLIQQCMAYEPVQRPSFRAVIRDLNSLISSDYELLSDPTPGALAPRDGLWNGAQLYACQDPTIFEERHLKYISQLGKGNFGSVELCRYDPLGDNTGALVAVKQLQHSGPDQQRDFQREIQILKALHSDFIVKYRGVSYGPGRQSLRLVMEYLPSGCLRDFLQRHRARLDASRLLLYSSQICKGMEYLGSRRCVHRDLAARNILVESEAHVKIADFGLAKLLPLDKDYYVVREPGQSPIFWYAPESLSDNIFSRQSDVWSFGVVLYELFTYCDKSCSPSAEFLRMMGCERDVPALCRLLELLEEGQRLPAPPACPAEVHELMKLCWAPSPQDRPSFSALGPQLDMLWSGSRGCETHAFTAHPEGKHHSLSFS", "experiment": "Inhibition of JAK3 JH1 domain (unknown origin) assessed as remaining activity at 1 uM by Kinome scan method relative to control"}, "[11]": {"target": "Phosphatidylinositol 4,5-bisphosphate 3-kinase catalytic subunit delta isoform (Homo sapiens) (UniProt O00329)", "experiment": "Inhibition of PIK3CD (unknown origin) assessed as remaining activity at 1 uM by Kinome scan method relative to control"}, "[12]": {"target": "Serine/threonine-protein kinase RIO1 (Homo sapiens) (UniProt Q9BRS2)", "experiment": "Inhibition of RIOK1 (unknown origin) assessed as remaining activity at 1 uM by Kinome scan method relative to control"}}}
{"smiles": "Nc1ccccc1Nc1ccc2c(c1)CCc1ccccc1C2=O", "values": [{"measurement": "Activity", "setting": "[1]", "value": 85, "unit": "%"}, {"measurement": "Activity", "setting": "[2]", "value": 96, "unit": "%"}, {"measurement": "Activity", "setting": "[3]", "value": 94, "unit": "%"}, {"measurement": "Activity", "setting": "[4]", "value": 92, "unit": "%"}, {"measurement": "Activity", "setting": "[5]", "value": 99, "unit": "%"}, {"measurement": "Activity", "setting": "[6]", "value": 90, "unit": "%"}, {"measurement": "Activity", "setting": "[7]", "value": 85, "unit": "%"}, {"measurement": "Activity", "setting": "[8]", "value": 86, "unit": "%"}, {"measurement": "Activity", "setting": "[9]", "value": 91, "unit": "%"}, {"measurement": "Activity", "setting": "[10]", "value": 96, "unit": "%"}, {"measurement": "Activity", "setting": "[11]", "value": 62, "unit": "%"}, {"measurement": "Activity", "setting": "[12]", "value": 94, "unit": "%"}]}
{"smiles": "O=C1c2ccc(Nc3ccc(F)cc3F)cc2CCc2ccc(OC[C@H](O)CO)cc21", "note": "[Skepinone-L]", "values": [{"measurement": "Activity", "setting": "[1]", "value": 100, "unit": "%"}, {"measurement": "Activity", "setting": "[2]", "value": 100, "unit": "%"}, {"measurement": "Activity", "setting": "[3]", "value": 78, "unit": "%"}, {"measurement": "Activity", "setting": "[4]", "value": 100, "unit": "%"}, {"measurement": "Activity", "setting": "[5]", "value": 93, "unit": "%"}, {"measurement": "Activity", "setting": "[6]", "value": 90, "unit": "%"}, {"measurement": "Activity", "setting": "[7]", "value": 89, "unit": "%"}, {"measurement": "Activity", "setting": "[8]", "value": 90, "unit": "%"}, {"measurement": "Activity", "setting": "[9]", "value": 94, "unit": "%"}, {"measurement": "Activity", "setting": "[10]", "value": 91, "unit": "%"}, {"measurement": "Activity", "setting": "[11]", "value": 70, "unit": "%"}, {"measurement": "Activity", "setting": "[12]", "value": 95, "unit": "%"}]}
